Source: US12139520B2 (priority 2020, dated 2024)
Numbered stars: 1 amine (or outer) side, 2 acyl side, 3 side chain; on linkers, the order of the positions; unused ones are H or OH. Bridge positions count the residues as written; N and C are the ends. Square brackets hold non-standard residues; d marks the D form. Peptide text beside a SMILES is read from it. * marks the point of attachment. C20 diacid = O=C(O)CCCCCCCCCCCCCCCCCCC(=O)*; γGlu = O=C(O)[C@H](CCC(=O)[*:2])N[*:1]; Hyp = O=C(O)[C@@H]1C[C@@H](O)CN1

Assays:
[1] = molecular target: T1, hAMY3 receptor (Homo sapiens, UniProt O60896+P30988); test: cAMP assay for in vitro receptor activation, hAMY3-R; assay type: cell-based; details: cAMP assay, hAMY3 receptor; read-out: hAMY3R EC50
T1 sequence (P30988 25-474): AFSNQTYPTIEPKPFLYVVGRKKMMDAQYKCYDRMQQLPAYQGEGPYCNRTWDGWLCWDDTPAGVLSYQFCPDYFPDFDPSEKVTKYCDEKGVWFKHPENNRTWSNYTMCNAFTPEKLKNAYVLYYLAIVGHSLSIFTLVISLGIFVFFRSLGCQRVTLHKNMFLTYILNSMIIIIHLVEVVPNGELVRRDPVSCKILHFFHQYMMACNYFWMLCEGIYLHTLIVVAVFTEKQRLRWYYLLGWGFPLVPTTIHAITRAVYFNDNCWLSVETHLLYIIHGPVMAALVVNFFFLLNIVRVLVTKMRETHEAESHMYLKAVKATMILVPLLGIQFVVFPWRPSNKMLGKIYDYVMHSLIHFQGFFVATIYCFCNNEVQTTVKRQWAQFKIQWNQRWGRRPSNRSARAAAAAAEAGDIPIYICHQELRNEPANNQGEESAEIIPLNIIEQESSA
T1 sequence (O60896 24-148 partner): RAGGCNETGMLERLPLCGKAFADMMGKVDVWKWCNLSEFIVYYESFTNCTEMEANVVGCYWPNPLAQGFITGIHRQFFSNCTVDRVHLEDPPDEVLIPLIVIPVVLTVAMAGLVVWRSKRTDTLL
Summary of the method: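 Accumulated cAMP was detected by time-resolved FRET one hour after reagent addition. Beforehand, hAMY3-R-overexpressing monoclonal cells (2000/well, DPBS, 0.05% casein, 0.5 mM IBMX) received graded doses of compound for 30 min at room temperature; human amylin served as positive control.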

[2] = molecular target: hAM1 receptor (Homo sapiens, UniProt O60895+Q16602); test: cAMP assay for in vitro receptor activation, hAM1-R; assay type: cell-based; details: cAMP assay, hAM1 receptor; read-out: hAM1R EC50
Summary of the method: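 Monoclonal stable hAM1-overexpressing cells, thawed from frozen stock; 8000 cells/well in DPBS + 0.05% casein + 0.5 mM IBMX; read-out cAMP.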

hAM1 receptor, sequence (Q16602 23-461): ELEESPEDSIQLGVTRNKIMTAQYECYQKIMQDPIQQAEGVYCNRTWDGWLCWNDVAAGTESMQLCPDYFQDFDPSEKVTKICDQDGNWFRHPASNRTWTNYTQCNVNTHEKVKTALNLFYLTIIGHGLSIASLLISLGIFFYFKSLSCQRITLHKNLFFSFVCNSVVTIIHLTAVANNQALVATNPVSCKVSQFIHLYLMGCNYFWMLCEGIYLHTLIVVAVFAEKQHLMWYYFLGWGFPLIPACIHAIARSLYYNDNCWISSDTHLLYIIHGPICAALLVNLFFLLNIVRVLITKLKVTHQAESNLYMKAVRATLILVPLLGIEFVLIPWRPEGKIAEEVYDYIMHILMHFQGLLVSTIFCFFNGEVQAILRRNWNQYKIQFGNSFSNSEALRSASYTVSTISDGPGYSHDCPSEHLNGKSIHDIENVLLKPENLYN
hAM1 receptor, sequence (O60895 43-175 partner): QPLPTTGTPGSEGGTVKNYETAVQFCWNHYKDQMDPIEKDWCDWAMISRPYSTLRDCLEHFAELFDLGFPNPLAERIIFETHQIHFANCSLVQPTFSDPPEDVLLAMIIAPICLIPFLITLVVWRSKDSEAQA

EC50 [1]	EC50 [2]	SMILES
0.018 nM	> 5000 nM	CC[C@H](C)[C@H](NC(=O)[C@H](CCC(N)=O)NC(=O)[C@H](Cc1c[nH]cn1)NC(=O)[C@H](C)NC(=O)[C@H](CC(C)C)NC(=O)[C@H](CCCNC(=N)N)NC(=O)[C@H](CCC(N)=O)NC(=O)[C@@H](NC(=O)[C@@H](NC(=O)[C@@H]1CSSC[C@H](NC(=O)[C@@H](N)CCCCN)C(=O)N[C@@H](CC(N)=O)C(=O)N[C@@H]([C@@H](C)O)C(=O)N[C@@H](C)C(=O)N[C@@H]([C@@H](C)O)C(=O)N1)[C@@H](C)O)C(C)C)C(=O)N[C@@H](Cc1ccc(O)cc1)C(=O)N[C@@H](CCC(N)=O)C(=O)N[C@@H](Cc1ccccc1)C(=O)N[C@H](C(=O)N[C@@H](CC(=O)O)C(=O)N[C@@H](CCCCN)C(=O)N[C@@H](CC(=O)O)C(=O)N[C@@H](CCCCN)C(=O)N[C@@H](CC(=O)O)C(=O)N[C@@H](CC(N)=O)C(=O)N[C@H](C(=O)N[C@@H](C)C(=O)N1CCC[C@H]1C(=O)N[C@@H](CCCNC(=N)N)C(=O)N[C@H](C(=O)N[C@@H](CCC(=O)O)C(=O)N[C@H](C(=O)NCC(=O)N[C@@H](CO)C(=O)N[C@@H](CC(N)=O)C(=O)NCC(=O)N[C@@H](Cc1ccc(O)cc1)C(N)=O)C(C)C)[C@@H](C)O)C(C)C)[C@@H](C)O [compound 102] (H-KCNTATCTVQRLAHQIYQFTDKDKDNVAPRTEVGSNGY-NH2; disulfide 2-7; N-terminus assumed)
0.017 nM	> 5000 nM	CC[C@H](C)[C@H](NC(=O)[C@H](CCC(N)=O)NC(=O)[C@H](CCC(=O)O)NC(=O)[C@H](C)NC(=O)[C@H](CC(C)C)NC(=O)[C@H](CCCNC(=N)N)NC(=O)[C@H](CCC(N)=O)NC(=O)[C@@H](NC(=O)[C@@H](NC(=O)[C@@H]1CSSC[C@H](NC(=O)[C@@H](N)CCCCN)C(=O)N[C@@H](CC(N)=O)C(=O)N[C@@H](C)C(=O)N[C@@H](C)C(=O)N[C@@H]([C@@H](C)O)C(=O)N1)[C@@H](C)O)C(C)C)C(=O)N[C@@H](Cc1ccc(O)cc1)C(=O)N[C@@H](CCC(N)=O)C(=O)N[C@@H](Cc1ccccc1)C(=O)N[C@H](C(=O)N[C@@H](CC(=O)O)C(=O)N[C@@H](CCCCN)C(=O)N[C@@H](CC(=O)O)C(=O)N[C@@H](CCCCN)C(=O)N[C@@H](CC(=O)O)C(=O)N[C@@H](CC(N)=O)C(=O)N[C@H](C(=O)N[C@@H](C)C(=O)N1CCC[C@H]1C(=O)N1CCC[C@H]1C(=O)N[C@H](C(=O)N[C@@H](CC(N)=O)C(=O)N[C@H](C(=O)NCC(=O)N[C@@H](CO)C(=O)N[C@@H](CC(N)=O)C(=O)NCC(=O)N1C[C@H](O)C[C@H]1C(N)=O)C(C)C)[C@@H](C)O)C(C)C)[C@@H](C)O [compound 101] (H-KCNAATCTVQRLAEQIYQFTDKDKDNVAPPTNVGSNG[Hyp]-NH2; disulfide 2-7; N-terminus assumed)
0.012 nM	> 5000 nM	CC[C@H](C)[C@H](NC(=O)[C@H](CCC(N)=O)NC(=O)[C@H](Cc1c[nH]cn1)NC(=O)[C@H](C)NC(=O)[C@H](CC(C)C)NC(=O)[C@H](CCCNC(=N)N)NC(=O)[C@H](CCC(N)=O)NC(=O)[C@@H](NC(=O)[C@@H](NC(=O)[C@@H]1CSSC[C@H](NC(=O)[C@H](CCCCN)NC(=O)CC[C@H](NC(=O)CCCCCCCCCCCCCCCCCCC(=O)O)C(=O)O)C(=O)N[C@@H](CC(N)=O)C(=O)N[C@@H]([C@@H](C)O)C(=O)N[C@@H](C)C(=O)N[C@@H]([C@@H](C)O)C(=O)N1)[C@@H](C)O)C(C)C)C(=O)N[C@@H](C)C(=O)N[C@@H](CCC(N)=O)C(=O)N[C@@H](Cc1ccccc1)C(=O)N[C@H](C(=O)N[C@@H](CC(=O)O)C(=O)N[C@@H](CCCCN)C(=O)N[C@@H](CC(=O)O)C(=O)N[C@@H](CCCCN)C(=O)N[C@@H](CC(=O)O)C(=O)N[C@@H](CC(N)=O)C(=O)N[C@H](C(=O)N[C@@H](C)C(=O)N1CCC[C@H]1C(=O)N1CCC[C@H]1C(=O)N[C@H](C(=O)N[C@@H](CC(N)=O)C(=O)N[C@H](C(=O)NCC(=O)N[C@@H](CO)C(=O)N[C@@H](CC(N)=O)C(=O)NCC(=O)N1C[C@H](O)C[C@H]1C(N)=O)C(C)C)[C@@H](C)O)C(C)C)[C@@H](C)O [compound 61] ({C20 diacid-γGlu}-KCNTATCTVQRLAHQIAQFTDKDKDNVAPPTNVGSNG[Hyp]-NH2; disulfide 2-7)
